Measured values from ChEMBL document CHEMBL3396950, “Enantioselective synthesis of dictyoceratin-A (smenospondiol) and -C, hypoxia-selective growth inhibitors from marine sponge” (Bioorg Med Chem, 2015).

System: DU-145
Assay: Antiproliferative activity against human DU145 cells assessed as growth inhibition treated after 12 hrs hypoxic condition and incubated additional 24 hrs under hypoxic condition by MTT assay
Type: functional, cell-based

SMILES	inhibition
C=C1CCC[C@H]2[C@](C)(Cc3cc(C(=O)OC)cc(O)c3O)[C@@H](C)CC[C@]12C	Dose-dependent effect
C=C1CCC[C@@H]2[C@@](C)(Cc3cc(C(=O)OC)cc(O)c3O)[C@H](C)CC[C@@]12C	Dose-dependent effect
C=C1CCC[C@@H]2[C@@](C)(Cc3cc(C(=O)OC)ccc3O)[C@H](C)CC[C@@]12C	Dose-dependent effect
C=C1CCC[C@H]2[C@](C)(Cc3cc(C(=O)OC)ccc3O)[C@@H](C)CC[C@]12C	Dose-dependent effect
